# Experimental data as given in US8969554B2, “6-acyl-1,2,4-triazine-3,5-dione derivative and herbicides” (Kumiai Chemical Industry Co., Ltd., priority 2010, dated 2015).
# Key:
# Type in all cases: in vivo
# Design in all cases: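 index 0 to 10 in 10% steps of herbicidal effect with 10 meaning complete death and 0 below 10%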
# Monochoria vaginalis = assay: Herbicidal activity by paddy field soil treatment (Test Example 1); conditions: 1000 g of effective component per hectare, evaluated on day 21 after the treatment, criteria of Table 72
# Procedure: (§1) Test for Determining Herbicidal Activity by Paddy Field Soil Treatment A 100 cm^2 wide plastic pot was filled with a paddy field soil and, after watering and shuffling, seeds of each of Echinochloa oryzicola, Monochoria vaginalis, and Scirpus juncoides Rocxb. were sowed and watered to a depth of 3 cm. On the next day, the wettable powder obtained in view of Formulation example 1 was diluted with water and applied on water surface. The application amount was 1000 g of effective component per hectare. After that, the plants were cultivated in a greenhouse, and on day 21 after the treatment, evaluation was made by the criteria of Table 72 for determining the herbicidal effects. [table]
# Scirpus juncoides Rocxb. = assay: as above; conditions: applied on water surface, 1000 g of effective component per hectare, day 21 after the treatment
# Procedure: as §1
# Echinochloa oryzicola = assay: as above; conditions: 1000 g of effective component per hectare, evaluated on day 21 after the treatment, criteria of Table 72
# Procedure: as §1
# Echinochloa crus-galli [1] = assay: Herbicidal activity by field foliage treatment (Test example 3); conditions: 1000 g effective component per hectare, day 14 after the treatment
# Procedure: (§2) Test example 3 Test for Determining Herbicidal Activity by Field Foliage Treatment A 80 cm^2 wide plastic pot was filled with a field soil and seeds of each of Indian millet and A. retroflexus were sowed and then incubated for 2 weeks in a green house. The wettable powder produced with reference to the Formulation example 1 was diluted water, and applied from the air to entire body of the plant as foliage treatment by using a small sprayer in an amount of 1000 liters per hectare so that the effective component is 1000 g per hectare. After that, the plants were cultivated in a greenhouse, and on day 14 after the treatment, evaluation was made by the criteria described in Table 72 for determining the herbicidal effects.
# A. retroflexus [2] = assay: as above; conditions: 1000 g effective component per hectare, day 14 after the treatment
# Procedure: as §2, with “[table]” for “Test example 3”
# Indian millet [3] = assay: as above; conditions: 1000 g effective component per hectare, day 14 after the treatment
# Procedure: as §2, with “[table]” for “Test example 3”
# Echinochloa crus-galli [4] = assay: Herbicidal activity by field soil treatment (Test example 2); conditions: 1000 g effective component per hectare, day 21 after the treatment
# Procedure: (§3) [table] Test for Determining Herbicidal Activity by Field Soil Treatment A 80 cm^2 wide plastic pot was filled with a field soil and seeds of each of Echinochloa crus-galli, foxtail, Indian millet, and A. retroflexus were sowed and then covered with soil. The wettable powder produced with reference to the Formulation example 1 was diluted water, and applied on the soil surface by using a small sprayer in an amount of 1000 liters per hectare so that the effective component is 1000 g per hectare. After that, the plants were cultivated in a greenhouse, and on day 21 after the treatment, evaluation was made by the criteria described in Table 72 for determining the herbicidal effects.
# A. retroflexus [5] = assay: as above; conditions: 1000 g effective component per hectare, day 21 after the treatment
# Procedure: as §3
# Indian millet [6] = assay: as above; conditions: 1000 g effective component per hectare, day 21 after the treatment
# Procedure: as §3
SMILES,"Herbicidal effects index number, Monochoria vaginalis (Monochoria vaginalis)","herbicidal effect index, S. juncoides Rocxb. (Scirpus juncoides Rocxb.)","Herbicidal effects index number, Echinochloa oryzicola (Echinochloa oryzicola)","herbicidal effect index, Echinochloa crus-galli (Echinochloa crus-galli [1])","herbicidal effect index, Amaranthus retroflexus (A. retroflexus [2])","herbicidal effect index, Abutilon theophrasti (Indian millet [3])","herbicidal effect index, Echinochloa crus-galli (Echinochloa crus-galli [4])","herbicidal effect index, Amaranthus retroflexus (A. retroflexus [5])","herbicidal effect index, Abutilon theophrasti (Indian millet [6])"
CN(c1ccc(F)cc1)n1c(=O)c(C(=O)O)nn(C)c1=O [V-370],10,10,10,7,10,9,7,10,10
CCN(c1ccccc1)n1c(=O)c(C(=O)C2=C(O)CCCC2=O)nn(C)c1=O [I-474],10,10,10,7,9,9,7,10,10
Cc1cc(C)cc(-n2c(=O)c(C(=O)C3=C(O)CCCC3=O)nn(C)c2=O)c1 [I-88],10,10,10,8,10,9,8,10,10
Cc1cccc(-n2c(=O)c(C(=O)C3=C(O)CCCC3=O)nn(C)c2=O)n1 [I-279],8,10,8,9,10,10,7,10,10
COc1ccc(-n2c(=O)c(C(=O)C3=C(O)CCCC3=O)nn(C)c2=O)cc1Cl [I-119],10,10,9,9,10,9,8,10,9
Cn1nc(C(=O)C2=C(O)CCCC2=O)c(=O)n(-c2cccs2)c1=O [I-198],10,10,8,10,10,10,7,10,10
O=C1CCCC(O)=C1C(=O)c1nn(CC(F)(F)F)c(=O)n(-c2ccccc2)c1=O [I-477],10,10,10,9,10,9,9,10,10
Cn1nc(C(=O)C2=C(O)CCCC2=O)c(=O)n(-c2ccc(C(F)(F)F)cc2)c1=O [I-65],10,10,10,8,10,10,10,10,10
Cn1nc(C(=O)C2=C(O)CCCC2=O)c(=O)n(CC2CCCO2)c1=O (stereo not shown) [I-339],10,10,10,9,10,10,8,10,10
Cc1ccc(-n2c(=O)c(C(=O)C3=C(O)CCCC3=O)nn(C)c2=O)cc1Cl [I-125],10,10,10,10,10,10,7,10,8
CN(c1ccc(F)cc1)n1c(=O)c(C(=O)C2=C(O)CCCC2=O)nn(C)c1=O [I-476],10,10,10,7,10,9,7,10,10
Cn1nc(C(=O)C2=C(O)CCCC2=O)c(=O)n(-c2ccc(F)cc2)c1=S [I-480],,10,10,9,10,10,8,10,10
Cc1ccc(-n2c(=O)c(C(=O)C3=C(O)CCCC3=O)nn(C)c2=O)nc1 [I-182],8,9,,8,9,9,7,10,10
